Measurements as given in paper PMC10135033, “Sulfonamidoboronic Acids as “Cross-Class” Inhibitors of an Expanded-Spectrum Class C Cephalosporinase, ADC-33, and a Class D Carbapenemase, OXA-24/40: Strategic Compound Design to Combat Resistance in Acinetobacter baumannii” (Antibiotics, 2023).

Tests used:
[1] = biological target: T1, OXA-24/40 (Acinetobacter baumannii, UniProt Q8RLA6); test: Ki determination, competition assay with nitrocefin (NCF) as substrate; assay type: biochemical; conditions: corrected for NCF affinity; 5 min pre-incubation; pH 7.4, 25 mM NaHCO3; read-out: Ki OXA-24/40
T1 construct: made in house
Experimental: (§1) The affinity of CR167 for the two different β-lactamases was measured in competition assays using nitrocefin (NCF) as the indicator substrate (Table 1).
(§2) The binding affinity of each of the compounds 6a–e with ADC-33 and with OXA-24/40 was determined after 5 min pre-incubation of boronic acid and the enzyme, using competition assays with nitrocefin (NCF) as the substrate. […] These compounds differ in three structural characteristics: stereochemistry, the presence of the m-carboxylate on the aromatic ring, and the small chain linked to the chiral center. […] Finally, the smaller the steric hindrance is at the R1 position, the higher the affinity is.
(§3) Ki values were determined by using nitrocefin as a reporter substrate and treating the compounds as competitive inhibitors. Steady-state kinetic parameters were determined by combining pure enzyme with nitrocefin in 50 mM NaH2PO4; 25 mM NaHCO3, pH 7.4 (for OXA-24/40); or 50 mM NaH2PO4, pH 7.4 (for ADC-33), at room temperature. Changes in absorbance were measured on a Cary 60 UV−Vis spectrophotometer (Agilent Technologies) and converted to velocity using the change-in-extinction coefficient specific to nitrocefin (ε = 17,400 M^−1·cm^−1 at 482 nm). Initial velocities were fit to the Michaelis–Menten equation, yielding kcat and Km values. Next, the enzyme was challenged with a constant concentration of nitrocefin and increasing amounts of inhibitor. IC50 values were used to calculate Ki values using the Cheng–Prusoff equation as previously described. Specifically, the measurements of the initial velocities were performed with the addition of 100 µM NCF after a 5 min pre-incubation of the enzyme (2 nM) with increasing concentration of the inhibitor [37]. To determine the average velocities (v0), data from three experiments were fit to Equation (1): (1) v0=vu −{vu[I]/IC 50+[I]} where vu represents the NCF uninhibited velocity and IC50 represents the inhibitor concentration that results in a 50% reduction in vu. The Ki value was corrected for the NCF affinity (Km values for both OXA-24/40 and ADC-33) with the Cheng–Prusoff equation (Equation (2)): (2) Ki=IC50/(1+[NCF]/KmNCF)

[2] = biological target: ADC-33 (Acinetobacter baumannii, UniProt A7Y407); test: as above; assay type: biochemical; conditions: for Ki: corrected for NCF affinity, 5 min pre-incubation, pH 7.4
Experimental: as §1, §2, §3

[3] = test system: E. coli DH10B, ADC-7 in pBCSK-; test: Antimicrobial susceptibility testing, broth microdilution; assay type: cell-based; conditions: BLI none; E. coli DH10B ADC-7 pBCSK-
Experimental: (§4) Based upon the inhibitor kinetics (Ki determinations), CR167 and the sulfonamidoboronic acid 6b were tested against E. coli strains expressing ADC-7 and ADC-33 cloned into pBCSK- (DH10B) (Table 3).
(§5) blaADC-7 pBCSK- and blaADC-33 pBCSK- were cloned and expressed in E. coli DH10B cells as previously described.
(§6) Testing of susceptibility to standard antibiotics was performed with broth microdilution according to CLSI guidelines. MICs for CAZ, CTX, FEP, and IMI were determined using cation-adjusted Mueller–Hinton broth according to CLSI methods, and CR167 or 6b was used at a fixed concentration of 10 mg/L. All MICs were interpreted according to the 2022 Clinical and Laboratory Standards Institute (CLSI) guidelines.

[4] = test system: E. coli DH10B, ADC-33 in pBCSK-; test: as above; assay type: cell-based; conditions: BLI none; E. coli DH10B ADC-33 pBCSK-
Experimental: as §4, §5, §6

[5] = test system: A. baumannii ATCC 17978 native ADC KO, ADC-33 pQF1266; test: as above; assay type: cell-based; conditions: BLI none; ATCC 17978 ADC KO, ADC-33 pQF1266
Experimental: (§7) The inhibitory effects of both compounds were tested against ADC-33 and OXA-24/-40 in A. baumannii, their native host. ATCC 17978, with its intrinsic chromosomal ADC knocked out (intrinsic OXA still present), was used in these experiments. In this isolate, the ADC MICs were not lowered by the inhibitors as much as they were against the E. coli background (Table 4).
Plasmid pBCSK- containing the blaADC-33 gene was digested with PvuII, which released the blaADC-33 gene, along with the lac promoter, which drives expression. This PvuII fragment was cloned into the SmaI site of the pQF1266 plasmid.
(§8) pWH1266 is a vector that replicates in A. baumannii, and the […] pWH1266 construct was generated as follows. The TEM gene was removed using inverse PCR, and an Xba1 site was engineered into the vector. blaOXA-24/40 and its upstream XerC/XerD were amplified from strain NM55. The amplified gene was cloned into the Xba1 site of the altered pWH1266 vector. The construct was confirmed using PCR and sequencing. Both blaADC-33 pQF1266 and […] pWH1266 were then expressed in A. baumannii ATCC 17978 that had the intrinsic chromosomal ADC gene knocked out.
(§9) The chromosomal blaADC-51 gene in ATCC 17978 was deleted and replaced with an apramycin resistance cassette using the recombineering method described by Tucker et al.. Primers used for this deletion were: Del AmpC-apra.For: […]; and Del AmpC-apra.Rev: […]. The correct deletion mutant was confirmed using PCR and sequencing.
as §6

[6] = test system: clinical A. baumannii isolate PR323 (OXA-24, OXA-65, ADC-218); test: Antimicrobial susceptibility testing, clinical isolate, broth microdilution; assay type: cell-based; conditions: BLI none; PR323
Experimental: (§10) Clinical A. baumannii isolates containing ADC-33 or OXA-24/-40 in combination with various other well-defined β-lactamases were also tested against CR167 and 6b (Table 5).
(§11) The clinical A. baumannii isolates used to test the β-lactamase inhibitors were selected from a previously well-characterized collection in our lab. They were chosen as they had either ADC-33 and/or OXA-24 in combination with other known β-lactamases (for specific combinations, see Table 5).
as §6

[7] = test system: clinical A. baumannii isolate PR408 (OXA-24, OXA-71, ADC-212); test: as above; assay type: cell-based; conditions: BLI none; PR408
Experimental: as §10, §11, §6

[8] = test system: clinical A. baumannii isolate PR462 (OXA-24, OXA-65, ADC-214); test: as above; assay type: cell-based; conditions: BLI none
Experimental: as §10, §11, §6

[9] = test system: clinical A. baumannii isolate PR378 (OXA-24, OXA-65, TEM-1); test: as above; assay type: cell-based; conditions: BLI none; PR378
Experimental: as §10, §11, §6

[10] = test system: clinical A. baumannii isolate PR396 (OXA-82, ADC-33); test: as above; assay type: cell-based; conditions: BLI none
Experimental: as §10, §11, §6

[11] = test system: clinical A. baumannii isolate PR328 (OXA-23, OXA-82, ADC-33); test: as above; assay type: cell-based; conditions: BLI none; PR328
Experimental: as §10, §11, §6

[12] = test system: clinical A. baumannii isolate PR474 (OXA-23, OXA-24, OXA-65, ADC-218); test: as above; assay type: cell-based; conditions: BLI none; PR474
Experimental: as §10, §11, §6

[13] = test system: A. baumannii ATCC 17978 native ADC KO, OXA-24 pWH1266; test: Antimicrobial susceptibility testing, broth microdilution; assay type: cell-based; conditions: BLI none; ATCC 17978 ADC KO, OXA-24 pWH1266
Experimental: as §7, §8, §9, §6

[14] = test system: OXA-24/40; design: method as in PMID 20299220; conditions: cited from earlier work
[15] = test system: E. coli DH10B pBCSK, blaADC-7; design: method as in PMID 29144724; conditions: without inhibitor; cited from earlier work

T1 sequence (Q8RLA6 22-275): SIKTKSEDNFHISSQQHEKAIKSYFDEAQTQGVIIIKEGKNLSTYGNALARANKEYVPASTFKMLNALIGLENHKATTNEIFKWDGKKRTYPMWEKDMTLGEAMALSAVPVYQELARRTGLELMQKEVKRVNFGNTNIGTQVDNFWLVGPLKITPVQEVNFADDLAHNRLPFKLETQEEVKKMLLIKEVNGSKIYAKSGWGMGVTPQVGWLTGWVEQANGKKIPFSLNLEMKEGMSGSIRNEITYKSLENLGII

Ki [1]	Ki [2]	Compound	MIC, antibiotic alone [3]	MIC, antibiotic alone [4]	MIC, antibiotic alone [5]	MIC, antibiotic alone [6]	MIC, antibiotic alone [7]	MIC, antibiotic alone [8]	MIC, antibiotic alone [9]	MIC, antibiotic alone [10]	MIC, antibiotic alone [11]	MIC, antibiotic alone [12]	MIC, antibiotic alone [13]	other results
> 1000 µM	193 ± 23 µM	CC[C@@H](NS(=O)(=O)Cc1ccccc1)B(O)O [6c]												
		CO/N=C(\C(=O)N[C@@H]1C(=O)N2C(C(=O)O)=C(COC(C)=O)CS[C@H]12)c1csc(N)n1 [CTX, Cefotaxime, reference compound]	64 µg/mL	128 µg/mL	32 µg/mL	2048 µg/mL	1024 µg/mL	1024 µg/mL	64 µg/mL	512 µg/mL	256 µg/mL	1024 µg/mL	16 µg/mL	
> 1000 µM	3.7 ± 0.6 µM	CC[C@H](NS(=O)(=O)Cc1cccc(C(=O)O)c1)B(O)O [6e]												
		O=S(=O)(NCB(O)O)c1cc2c(Cl)ccc(Cl)c2s1 [DSABA, 4,7-dichloro-1-benzothien-2-yl-sulfonylaminomethyl boronic acid]												IC50 [14]: 5.6 µM
		CO/N=C(\C(=O)N[C@@H]1C(=O)N2C(C(=O)[O-])=C(C[N+]3(C)CCCC3)CS[C@H]12)c1csc(N)n1 [FEP, cefepime, reference compound]	0.5 µg/mL	0.5 µg/mL	4 µg/mL								32 µg/mL	
320 ± 30 µM	22 ± 3 µM	CC[C@@H](NS(=O)(=O)Cc1cccc(C(=O)O)c1)B(O)O [6d]												
		CC(C)(O/N=C(\C(=O)N[C@@H]1C(=O)N2C(C(=O)[O-])=C(C[n+]3ccccc3)CS[C@H]12)c1csc(N)n1)C(=O)O [CAZ, ceftazidime, reference compound]	64 µg/mL	2048 µg/mL	128 µg/mL	4096 µg/mL	1024 µg/mL	256 µg/mL	64 µg/mL	2048 µg/mL	2048 µg/mL	4096 µg/mL	8 µg/mL	MIC for CAZ alone [15]: 64 µg/mL
		C[C@@H](O)[C@H]1C(=O)N2C(C(=O)O)=C(SCCN=CN)C[C@H]12 [IMI, reference compound]				128 µg/mL	128 µg/mL	64 µg/mL	256 µg/mL	64 µg/mL	128 µg/mL	128 µg/mL		

Compound	Ki [1]	Ki [2]	MIC, antibiotic alone [3]	MIC, antibiotic alone [4]	MIC, antibiotic alone [5]	MIC, antibiotic alone [6]	MIC, antibiotic alone [7]	MIC, antibiotic alone [8]	MIC, antibiotic alone [9]	MIC, antibiotic alone [10]	MIC, antibiotic alone [11]	MIC, antibiotic alone [12]	MIC, antibiotic alone [13]	other results
C[C@@H](NS(=O)(=O)Cc1ccccc1)B(O)O [6a]	630 ± 70 µM	3.1 ± 0.5 µM												fold less potent than 6b, ADC-33 ([2]; ratio of Ki, 6a vs 6b): 4 fold
